Assay: wn = mass fraction of the nth substance listed
Conditions: 100 kPa, Liquid, transient hot wire

CCCCCCCCCCCC(=O)OC [methyl dodecanoate] + CCCCO
Conditions	thermal conductivity [W/m/K]
287.91 K, w1 = 0.3009	0.1499
287.94 K, w1 = 0.1013	0.1515
287.95 K, w1 = 0.5027	0.1492
288.07 K, w1 = 0.6997	0.1488
288.14 K, w1 = 0.8996	0.1485
297.76 K, w1 = 0.1013	0.1489
297.9 K, w1 = 0.6997	0.1469
297.92 K, w1 = 0.5027	0.1471
297.95 K, w1 = 0.3009	0.1475
298.02 K, w1 = 0.8996	0.1463
307.79 K, w1 = 0.1013	0.1465
307.81 K, w1 = 0.3009	0.1457
307.83 K, w1 = 0.5027	0.1452
307.96 K, w1 = 0.8996	0.1441
307.99 K, w1 = 0.6997	0.1445
317.67 K, w1 = 0.3009	0.1434
317.75 K, w1 = 0.1013	0.144
317.8 K, w1 = 0.5027	0.1426
317.83 K, w1 = 0.8996	0.1422
317.88 K, w1 = 0.6997	0.1424
327.6 K, w1 = 0.1013	0.1419
327.69 K, w1 = 0.3009	0.1411
327.94 K, w1 = 0.5027	0.14
327.94 K, w1 = 0.6997	0.1398
328.11 K, w1 = 0.8996	0.139
337.45 K, w1 = 0.3009	0.1386
337.47 K, w1 = 0.1013	0.1395
337.93 K, w1 = 0.5027	0.1378
337.95 K, w1 = 0.8996	0.1371
337.96 K, w1 = 0.6997	0.1375
347.23 K, w1 = 0.1013	0.1368
347.28 K, w1 = 0.3009	0.1361
347.67 K, w1 = 0.6997	0.1354
347.73 K, w1 = 0.5027	0.1358
347.86 K, w1 = 0.8996	0.135
357.25 K, w1 = 0.3009	0.1333
357.28 K, w1 = 0.1013	0.1342
357.71 K, w1 = 0.8996	0.1322
357.82 K, w1 = 0.5027	0.133
357.87 K, w1 = 0.6997	0.1327

CCCCCCCCCCCC(=O)OC [methyl dodecanoate] + CCCO
Conditions	thermal conductivity [W/m/K]
287.68 K, w1 = 0.6993	0.1497
287.9 K, w1 = 0.298	0.1522
287.91 K, w1 = 0.1	0.1542
288 K, w1 = 0.4998	0.1509
288.06 K, w1 = 0.8996	0.1484
297.73 K, w1 = 0.6993	0.1473
297.79 K, w1 = 0.1	0.1517
297.85 K, w1 = 0.4998	0.1484
297.85 K, w1 = 0.8996	0.1467
297.93 K, w1 = 0.298	0.1494
307.66 K, w1 = 0.1	0.1492
307.76 K, w1 = 0.4998	0.1457
307.83 K, w1 = 0.298	0.1474
307.89 K, w1 = 0.8996	0.1445
308.03 K, w1 = 0.6993	0.1452
317.53 K, w1 = 0.298	0.1451
317.62 K, w1 = 0.1	0.1474
317.67 K, w1 = 0.4998	0.1436
317.86 K, w1 = 0.6993	0.1429
318.02 K, w1 = 0.8996	0.1422
327.34 K, w1 = 0.298	0.1424
327.67 K, w1 = 0.1	0.1446
327.67 K, w1 = 0.4998	0.1412
327.68 K, w1 = 0.8996	0.1398
328.03 K, w1 = 0.6993	0.1405
337.22 K, w1 = 0.1	0.1423
337.4 K, w1 = 0.298	0.14
337.64 K, w1 = 0.4998	0.1391
337.82 K, w1 = 0.6993	0.1384
337.85 K, w1 = 0.8996	0.1377
347.19 K, w1 = 0.1	0.139
347.24 K, w1 = 0.298	0.1374
347.52 K, w1 = 0.4998	0.1368
347.82 K, w1 = 0.6993	0.1362
347.93 K, w1 = 0.8996	0.135
357.25 K, w1 = 0.1	0.1365
357.44 K, w1 = 0.298	0.1351
357.79 K, w1 = 0.4998	0.1344
357.91 K, w1 = 0.6993	0.1337
357.93 K, w1 = 0.8996	0.1326

CCCCCCCCCCCC(=O)OC [methyl dodecanoate] + CCCCCO
Conditions	thermal conductivity [W/m/K]
287.79 K, w1 = 0.6756	0.1488
287.86 K, w1 = 0.2997	0.1497
287.92 K, w1 = 0.5029	0.1493
288 K, w1 = 0.1021	0.1503
288.01 K, w1 = 0.8983	0.1482
297.82 K, w1 = 0.1021	0.1486
297.86 K, w1 = 0.5029	0.1475
297.95 K, w1 = 0.6756	0.1469
298.07 K, w1 = 0.2997	0.148
298.1 K, w1 = 0.8983	0.1456
307.72 K, w1 = 0.1021	0.1468
307.78 K, w1 = 0.6756	0.145
307.8 K, w1 = 0.5029	0.1453
307.84 K, w1 = 0.2997	0.1455
307.9 K, w1 = 0.8983	0.1441
317.72 K, w1 = 0.1021	0.1441
317.72 K, w1 = 0.2997	0.1435
317.8 K, w1 = 0.6756	0.1424
317.85 K, w1 = 0.5029	0.1429
317.85 K, w1 = 0.8983	0.1419
327.58 K, w1 = 0.1021	0.1422
327.68 K, w1 = 0.2997	0.1412
327.7 K, w1 = 0.6756	0.1407
327.72 K, w1 = 0.5029	0.141
327.87 K, w1 = 0.8983	0.1397
337.42 K, w1 = 0.1021	0.1399
337.53 K, w1 = 0.2997	0.139
337.67 K, w1 = 0.5029	0.1389
337.76 K, w1 = 0.6756	0.1385
337.85 K, w1 = 0.8983	0.1373
347.5 K, w1 = 0.2997	0.137
347.65 K, w1 = 0.1021	0.138
347.66 K, w1 = 0.5029	0.1368
347.7 K, w1 = 0.8983	0.1352
347.78 K, w1 = 0.6756	0.1356
357.16 K, w1 = 0.1021	0.1364
357.47 K, w1 = 0.2997	0.135
357.65 K, w1 = 0.5029	0.1348
357.73 K, w1 = 0.6756	0.1335
357.79 K, w1 = 0.8983	0.1332

Source: the NIST ThermoML archive (doi:10.1016/j.jct.2019.105881)
